Among the data in patent publication US5138069A (E. I. Du Pont de Nemours and Company, priority 1988, dated 1992) are IC50 and minimal effective dose values, retold here.

Read-outs that look alike come from different tables or passages of the source.

In one assay the target is AII receptor. Put plainly: Angiotensin II receptor binding (displacement of 3H-AII). The settings on record: read-out: Angiotensin II Receptor Binding IC50, rat adrenal cortical microsomes, 2 nM 3H-AII, 1 hour, room temperature. How it is done:
The assay was carried out according to the method described by [Glossmann et al., J. Biol. Chem., 249, 825 (1974)], but with some modifications. The reaction mixture contained rat adrenal cortical microsomes (source of AII receptor) in Tris buffer and 2 nM of ^3 H-AII with or without potential AII antagonist. This mixture was incubated for 1 hour at room temperature and the reaction was subsequently terminated by rapid filtration and rinsing through glass micro-fibre filter. Receptor-bound ^3 H-AII trapped in filter was quantitated by scintillation counting.
Compounds listed in Table 26 were tested in the same manner as described for Table 25, except that in the test for antihypertensive effects in renal hypertensive rats, the compounds were administered orally at 30 mg/kg and intravenously at 3 mg/kg.
On the technique in general: In a radioligand displacement assay an active substance lowers the binding of a labelled ligand.

In another assay the test system is Renal Hypertensive Rats. Nature of the assay: Antihypertensive effects in renal hypertensive rats.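 For all read-outs here: effective means a significant fall in blood pressure at the dose shown or below.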 The class given is in vivo. The settings on record: Rattus norvegicus; for minimal effective dose at 10 mg/kg / minimal effective dose at 100 mg/kg: Table 25; for minimal effective dose at 10 mg/kg / minimal effective dose at 3 mg/kg: intravenous; for minimal effective dose at 10 mg/kg: 10 mg/kg or less; for minimal effective dose at 100 mg/kg / minimal effective dose at 30 mg/kg: oral; for minimal effective dose at 100 mg/kg: 100 mg/kg or less; for minimal effective dose at 3 mg/kg / minimal effective dose at 30 mg/kg: Table 26. In a few lines:
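Renal hypertensive rats (renin-driven AII elevation) dosed orally at 100 mg/kg and/or i.v. via jugular cannula at 10 mg/kg; a second set used 30 mg/kg oral and 3 mg/kg i.v. Arterial pressure recorded continuously via carotid cannula and compared with pretreatment levels.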

Setting [1] is: Table 25, tested as sodium salt.

In the case of `CCCCc1nc(Cl)c(COC)n1Cc1ccc(C(=O)Nc2cccc(C)c2C(=O)O)cc1` [Example 80], at AII receptor (setting [1]), the IC50 (as a rule, the concentration at which inhibition is half-maximal) is 500 nM. Also, in the assay with Renal Hypertensive Rats (tested as sodium salt), the minimal effective dose (commonly the lowest level tested that produced the effect sought) at 10 mg/kg was less than 10 mg/kg and the minimal effective dose at 100 mg/kg is less than 100 mg/kg.
The like results for `CCCCc1nc(Cl)c(COC)n1Cc1ccc(C(=O)Nc2ccccc2-c2nnn[nH]2)cc1` [Example 81] were, in that order, 570 nM, greater than 100 mg/kg and greater than 100 mg/kg.
With `CCCCc1nc(Cl)c(CO)n1Cc1ccc(-c2cccc(C(=O)OCOC(=O)C(C)(C)C)c2)cc1` [Example 88, 1-[(3'-Trimethylacetoxymethoxycarbonylbiphenyl-4-yl)methyl]-2-butyl-4-chloro-5-hydroxymethylimidazole], the IC50 on AII receptor (Table 25) turned out to be 1300 nM. Further, the minimal effective dose at 100 mg/kg in the assay on Renal Hypertensive Rats was less than 100 mg/kg.
Consider `CCCCc1nc(Cl)c(COC)n1Cc1ccc(-c2ccccc2-c2nnn[nH]2)cc1` [Example 90], for which the IC50 on AII receptor (setting [1]) is 20 nM. Further, in the assay with Renal Hypertensive Rats (tested as sodium salt), the minimal effective dose at 10 mg/kg is less than 10 mg/kg and the minimal effective dose at 100 mg/kg was less than 100 mg/kg.
For the compound `CCCCc1nc([N+](=O)[O-])c(CO)n1Cc1ccc(-c2ccccc2C(=O)O)cc1` [Example 91, 1-[(2'-carboxybiphenyl-4-yl)-methyl]-2-butyl-5-hydroxymethyl-4-nitroimidazole], on AII receptor (Table 25), the half-maximal inhibitory concentration (IC50) was determined as 260 nM. In the assay on Renal Hypertensive Rats, this compound showed a minimal effective dose at 10 mg/kg of less than 10 mg/kg and a minimal effective dose at 100 mg/kg greater than 100 mg/kg.
With `CCCCc1nc(C(F)(F)F)c(CO)n1Cc1ccc(-c2ccccc2C(=O)O)cc1` [Example 92, 1-[(2'-carboxybiphenyl-4-yl)-methyl]-2-butyl-5-hydroxymethyl-4-trifluoromethylimidazole], the IC50 at AII receptor (Table 25) stood at 62 nM. The compound further returned a minimal effective dose at 10 mg/kg in the assay with Renal Hypertensive Rats of less than 10 mg/kg.
`CCCCc1nc(C(F)(F)C(F)(F)F)c(CO)n1Cc1ccc(-c2ccccc2C(=O)O)cc1` [Example 92A, 1-[(2'-carboxybiphenyl-4-yl)methyl]-2-butyl-5-hydroxymethyl-4-pentafluoroethylimidazole]: the IC50 on AII receptor (Table 26) is 40 nM. In the assay with Renal Hypertensive Rats, this compound showed a minimal effective dose at 3 mg/kg of less than 3 mg/kg and a minimal effective dose at 30 mg/kg of less than 30 mg/kg.
In the case of `CCCCc1nc(Cl)c(CO)n1Cc1ccc(-c2ccccc2C(=O)O)cc1` [Example 94, 2-butyl-1-[(2'-carboxybiphenyl-4-yl)methyl]-4-chloro-5-hydroxymethylimidazole], the IC50 at AII receptor (Table 25) was 280 nM. Moreover, in the assay with Renal Hypertensive Rats, the minimal effective dose at 10 mg/kg is less than 10 mg/kg and the minimal effective dose at 100 mg/kg was less than 100 mg/kg.
The like results for `CCCCc1nc(CO)c(Cl)n1Cc1ccc(-c2ccccc2C(=O)O)cc1` [Example 95] were, in that order, 1200 nM, less than 10 mg/kg and greater than 100 mg/kg.
The like results for `CCCCc1ncc(CO)n1Cc1ccc(-c2ccccc2C(=O)O)cc1` [Example 97] were, in that order, 270 nM, less than 10 mg/kg and greater than 100 mg/kg.
In the case of `CCCCc1nc(Cl)c(COC(C)C)n1Cc1ccc(-c2ccccc2C(=O)O)cc1` [Example 99], at AII receptor (Table 25), the IC50 was found to be 90 nM. In the assay on Renal Hypertensive Rats, the minimal effective dose at 10 mg/kg is less than 10 mg/kg and the minimal effective dose at 100 mg/kg was less than 100 mg/kg.
For `CCCCc1nc(Br)c(CO)n1Cc1ccc(-c2ccccc2C(=O)O)cc1` [Example 100], in that order: 90 nM, less than 10 mg/kg and less than 100 mg/kg.
The like results for `CCCCc1nc(I)c(CO)n1Cc1ccc(-c2ccccc2C(=O)O)cc1` [Example 102] were, in that order, 61 nM, less than 10 mg/kg and less than 100 mg/kg.
For `CCCCc1nc(CO)c(I)n1Cc1ccc(-c2ccccc2C(=O)O)cc1` [Example 105], in that order: 680 nM, less than 10 mg/kg and less than 100 mg/kg.
In the case of `CCCCc1nc(Cl)c(CO)n1Cc1ccc(-c2cccc(C)c2C(=O)O)cc1` [Example 106], at AII receptor (Table 25), the IC50 came to 1900 nM. In the assay on Renal Hypertensive Rats, this compound came in with a minimal effective dose at 10 mg/kg of less than 10 mg/kg and a minimal effective dose at 100 mg/kg of less than 100 mg/kg.
For `CCCc1nc(Cl)c(CO)n1Cc1ccc(-c2ccccc2C(=O)O)cc1` [Example 108], in that order: 160 nM, less than 10 mg/kg and less than 100 mg/kg.
As to `CCCCCc1nc(Cl)c(CO)n1Cc1ccc(-c2ccccc2C(=O)O)cc1` [Example 109], the 50% inhibitory concentration (IC50) on AII receptor (Table 25) was 980 nM. In the assay with Renal Hypertensive Rats, the minimal effective dose at 10 mg/kg was less than 10 mg/kg and the minimal effective dose at 100 mg/kg is less than 100 mg/kg.
For `CCCc1nc(Cl)c(C=O)n1Cc1ccc(-c2ccccc2-c2nnn[nH]2)cc1` [Example 114, 2-Propyl-4-chloro-1-[(2'-(1H-tetrazol-5-yl)biphenyl-4-yl)methyl]imidazole-5-carboxaldehyde], the IC50 at AII receptor (Table 25) amounted to 50 nM. Besides, in the assay with Renal Hypertensive Rats, the minimal effective dose at 10 mg/kg is less than 10 mg/kg and the minimal effective dose at 100 mg/kg is less than 100 mg/kg.
The like results for `CCCCc1nc(Cl)c(CC(=O)O)n1Cc1ccc(-c2ccccc2C(=O)O)cc1` [Example 115] were, in that order, 430 nM, less than 10 mg/kg and less than 100 mg/kg.
The like results for `CCCCc1nc(Cl)c(C(C)C(=O)O)n1Cc1ccc(-c2ccccc2C(=O)O)cc1` (stereo not shown) [Example 116] were, in that order, 260 nM, less than 10 mg/kg and less than 100 mg/kg.
The like results for `CCCCc1nc(CO)c([N+](=O)[O-])n1Cc1ccc(-c2ccccc2C(=O)O)cc1` [Example 117] were, in that order, 890 nM, less than 10 mg/kg and less than 100 mg/kg.
In the case of `CCCCc1nc(CO)c(Cl)n1Cc1ccc(-c2ccccc2-c2nn[nH]n2)cc1` [Example 118], at AII receptor (Table 25), the concentration for half-maximal inhibition (IC50) turned out to be 89 nM. In the assay with Renal Hypertensive Rats, the minimal effective dose at 10 mg/kg was less than 10 mg/kg and the minimal effective dose at 100 mg/kg was less than 100 mg/kg.
For `CCCCSc1ncc(CO)n1Cc1ccc(-c2ccccc2C(=O)O)cc1` [Example 123], in that order: 5600 nM, less than 10 mg/kg and greater than 100 mg/kg.
Take `CCCc1nc(C(F)(F)F)c(CO)n1Cc1ccc(-c2ccccc2C(=O)O)cc1` [Example 124A]: on AII receptor (Table 26), the IC50 turned out to be 130 nM. For the same compound, in the assay with Renal Hypertensive Rats, the minimal effective dose at 3 mg/kg was less than 3 mg/kg and the minimal effective dose at 30 mg/kg was less than 30 mg/kg.
Consider `CCCc1nc(C(F)(F)C(F)(F)F)c(CO)n1Cc1ccc(-c2ccccc2C(=O)O)cc1` [Example 124B], for which the IC50 on AII receptor (Table 26) is 50 nM. In the assay with Renal Hypertensive Rats, the minimal effective dose at 3 mg/kg was less than 3 mg/kg and the minimal effective dose at 30 mg/kg is less than 30 mg/kg.
The like results for `CCCc1nc(C(F)(F)F)c(CO)n1Cc1ccc(-c2ccccc2-c2nn[nH]n2)cc1` [Example 124D] were, in that order, 6 nM, less than 3 mg/kg and less than 30 mg/kg.
The like results for `CCCCc1nc(C(F)(F)C(F)(F)F)c(CO)n1Cc1ccc(-c2ccccc2-c2nn[nH]n2)cc1` [Example 124E] were, in that order, 7 nM, less than 3 mg/kg and less than 30 mg/kg.
For `CCCc1nc(C(F)(F)C(F)(F)C(F)(F)F)c(CO)n1Cc1ccc(-c2ccccc2C(=O)O)cc1` [Example 124G], in that order: 74 nM, less than 3 mg/kg and less than 30 mg/kg.
As for `CCCc1nc(C(F)(F)C(F)(F)C(F)(F)C(F)(F)F)c(CO)n1Cc1ccc(-c2ccccc2C(=O)O)cc1` [Example 124H], the IC50 at AII receptor (Table 26) was found to be 290 nM. In the assay on Renal Hypertensive Rats, this compound yielded a minimal effective dose at 3 mg/kg of less than 3 mg/kg and a minimal effective dose at 30 mg/kg of less than 30 mg/kg.
For `CCCc1nc(C(F)(F)C(F)(F)C(F)(F)C(F)(F)C(F)(F)C(F)(F)F)c(CO)n1Cc1ccc(-c2ccccc2C(=O)O)cc1` [Example 124I], in that order: 2500 nM, less than 3 mg/kg and greater than 30 mg/kg.
For `CCCc1nc(-c2c(F)c(F)c(F)c(F)c2F)c(CO)n1Cc1ccc(-c2ccccc2C(=O)O)cc1` [Example 124J], in that order: 680 nM, less than 3 mg/kg and less than 30 mg/kg.
The like results for `CCCc1nc(C(F)(F)C(F)(F)C(F)(F)F)c(CO)n1Cc1ccc(-c2ccccc2-c2nnn[nH]2)cc1` [Example 124K] were, in that order, 13 nM, less than 3 mg/kg and less than 30 mg/kg.
As to `O=C(O)c1ccccc1-c1ccc(Cn2c(CO)cnc2SCC2CC2)cc1` [Example 124], the IC50 on AII receptor (Table 25) amounted to 1800 nM. Besides, in the assay with Renal Hypertensive Rats, the minimal effective dose at 10 mg/kg is less than 10 mg/kg and the minimal effective dose at 100 mg/kg was greater than 100 mg/kg.
For `CCCCc1nc(Cl)c(C(=O)OC)n1Cc1ccc(-c2ccccc2C(=O)O)cc1` [Example 126, methyl 1-[(2'-carboxybiphenyl-4-yl)methyl]-2-butyl-4-chloroimidazole-5-carboxylate], in that order: 340 nM, less than 10 mg/kg and less than 100 mg/kg.
